Experimental data taken from PMC10654779, “Development of a fibroblast activation protein-targeted PET/NIR dual-modality probe and its application in head and neck cancer” (Frontiers in Bioengineering and Biotechnology, 2023).

Key:
U87MG xenografts [1] = assay: NIR fluorescence imaging of U87MG tumor-bearing mice; assay type: in vivo; conditions: 0.5-72 h post-injection, n = 3
Description: FI was performed using a small animal FI system with ICG mode: The NIR filter set (Excitation: 740–790 nm; Emission: 810–860 nm) was used for ICG fluorescence. The fluorescence intensity was calculated by the mean fluorescence intensity (MFI).
To evaluate the optimal imaging time window, NIR fluorescence images of U87MG tumor-bearing mice were collected at different time points (0.5, 1, 2, 24, 48, and 72 h) post-injection of FAP-2286-ICG (3.16 μg, 1.37 nmol). Following in vivo FI, mice were euthanized, and their xenografts and major organs were harvested for in vitro FI analysis. The ROIs were drawn manually in the tumor and organs on the fluorescence image to account for the distribution of FAP-2286-ICG in the tissue. MFI levels from organs and the TBRs using tumor/muscle values were evaluated.

[2] = Optical properties (UV/Vis absorbance and fluorescence emission spectra); assay type: physicochemical; conditions: 10 μM in PBS, diluted from 1 mM DMSO
Description: The ultraviolet absorption spectra of FAP-2286-ICG were collected using a UV/Vis spectrophotometer (DU-730, BeckMan Coulter). Fluorescence spectra were collected using a fluorescence spectrometer (FLS980, Edinburgh instruments). FAP-2286-ICG and ICG were dissolved in DMSO at a concentration of 1 mM before being diluted with PBS to a final concentration of 10 μΜ, respectively. The absorbance spectra were taken between 600 and 1100 nm. The emission spectra were recorded in the 790–860 nm range at an excitation wavelength of 770 nm. The concentration dependence of fluorescence intensity of FAP-2286-ICG was assessed with different concentrations of FAP-2286-ICG (0–100 μM). The fluorescent images were collected using a small animal fluorescence imaging system (VISQUE InVivo Smart-LF, Vieworks Co., Ltd) and analyzed using CleVue™ software (Vieworks Co., Ltd).

U87MG cells [3] = assay: Cellular retention by fluorescence imaging; assay type: cell-based, human; conditions: 3 μM (based on ICG), 37 °C, 24 h incubation, n = 5
Description: (§1) For the cellular uptake study, U87MG cells (2×10^5 cells/well) were seeded in 24-well plates and incubated at 37°C for 24 h before the experiments (five replicate wells per group). After removing the medium and washing the cells with fresh medium, the cells in each well were treated with DMEM medium containing 0.74 MBq [^68Ga]Ga-FAP-2286-ICG at 37°C for 30, 60, and 120 min. After removing the medium, the cells were washed twice with cold PBS, lysed with NaOH (1 M) twice (0.5 mL/well), and collected. The bound activity was measured with a γ-counter. For the blocking study, a 100-fold excess of the non-radiolabeled precursor was added before treating the cells with [^68Ga]Ga-FAP-2286-ICG. Subsequent experimental procedure and condition were the same as the aforementioned cellular uptake assay. To further verify whether the introduction of ICG affected the targeting of the precursor, [^68Ga]Ga-FAP-2286 was incubated with U87MG cells for 2 h as a control group. Additionally, the retention effect of probe on the tumor was verified. Briefly, U87MG cells were incubated with DMEM medium containing approximately 3 μM (based on the content of ICG) FAP-2286-ICG or ICG at 37 °C for 2, 4, 8, and 24 h. After discarding the medium, the cells were washed three times with PBS and imaged using a small animal FI system with ICG mode to quantify the fluorescent signal.

[4] = human; no reference given; cited from earlier work
From the text: Novel methodologies employing dual-labeled probes aid the surgeon by allowing for more streamlined preoperative planning via PET/CT or PET/MRI and accurate intraoperative navigation guidance.

BALB/c mice = assay: Toxicity study in BALB/c mice; assay type: in vivo
Description: The BALB/c mice were sacrificed and collected from the heart, liver, spleen, lung, and kidney to determine toxicity with hematoxylin and eosin (H&E) staining. The serum was collected to measure the levels of aspartate aminotransferase (AST), alanine aminotransferase (ALT), and blood urea nitrogen (UREA). Body weight was recorded every 5 days up to 20 days postinjection. The mice with intravenous injections of saline served as a control group.

in vivo = assay type: in vivo, mice; conditions: female, BALB/c nude, mouse, in vivo, iv, total radioactivity
Description: (§2) All animal studies were performed according to the protocols approved by the Animal Welfare Ethics Committee of Shanghai Fourth People’s Hospital. Six to eight-week-old female BALB/c nude mice were purchased from Beijing Vital River Laboratory Animal Technology Co., Ltd. To establish cell-derived xenograft (CDX) models, the mice were implanted subcutaneously in the flanks with 5 × 10^6 U87MG cells in PBS containing 50% Matrigel. HNSCC cell lines (FaDu, CAL27, and CNE2) were inoculated subcutaneously on the right flanks of nude mice. The diameter of each tumor was determined and documented every 2–3 days. When the tumor reached 300–400 mm^3, the mice were used for the imaging study. The U87MG tumor-bearing mice were used to study the in vivo targeting, biodistribution, and optimal FI time window of [^68Ga]Ga-FAP-2286-ICG. HNSCC tumor-bearing mice were used to evaluate the feasibility of [^68Ga]Ga-FAP-2286-ICG for tumor localization and guided surgical resection of HNSCC tumors.
(§3) PET/CT imaging was performed in U87MG tumor-bearing mice to assess the tumor-targeting efficiency and biodistribution of [^68Ga]Ga-FAP-2286-ICG in vivo. The mice were injected with 10 MBq (1 nmol) of [^68Ga]Ga-FAP-2286-ICG through the tail vein, and images were performed at 30, 60, and 90 min after injection. The blocking group was pre-injected with the 50-fold molar excess of non-radiolabeled precursor 1 h in advance.

U87MG xenografts [5] = assay: in vivo; assay type: in vivo, mice; conditions: for SUVmax of the tumor: U87MG tumor-bearing mice, 10 MBq (1 nmol) i.v.
Description: as §2, §3

U87MG cells [6] = assay: Cellular uptake study (radioactivity, γ-counter); assay type: cell-based, human
Description: as §1

in vitro = in vitro ADME
Description: The radiochemical purity (RCP) of [^68Ga]Ga-FAP-2286-ICG was assessed using radio instant thin-layer chromatography (Radio-iTLC). Glass microfiber chromatography paper impregnated with a silica gel served as the stationary phase and methanol and 0.25 M sodium acetate (1:1, v/v) as the mobile phase.
The in vitro stability of [^68Ga]Ga-FAP-2286-ICG was assessed by co-culture with 0.01 M PBS and FBS at a concentration of 10% (w/w), respectively, and the mixtures were incubated at 37°C for 0.5, 1, and 2 h.

[7] = assay type: physicochemical; conditions: pH 7.4
Description: The octanol-water partition coefficient of [^68Ga]Ga-FAP-2286-ICG was detected by mixing 10 μL of freshly prepared [^68Ga]Ga-FAP-2286-ICG with 490 μL of PBS (0.1 M, pH 7.4) and 500 μL of n-octanol in a centrifuge tube. The mixture was vortexed for 3 min and centrifuged at 3,000 × rpm for 5 min for layer separation. An aliquot of the aqueous and n-octanol layers was separately collected and measured by γ counter (GC-2101, PET Co., Ltd). Log p values were calculated using the formula: log P = log(total counts in octanol/total counts in PBS).

NIR-I fluorescence emission peak ([2]; excitation 770 nm, 790-860 nm) [nm]	absorption peak ([2]; spectra 600-1100 nm) [nm]	Compound	fluorescence signal in the tumor site (U87MG xenografts [1])	fluorescent signal retained by cells (U87MG cells [3])	clinically safe dose [4] [mg/kg]	acute toxicity (BALB/c mice; BALB/c mice, 3-week period, n = 3)	serum concentrations of AST, ALT and UREA versus control group (BALB/c mice; BALB/c mice, 3 weeks after injection, saline control, n = 3)	pathological abnormalities in major organs (H&E) (BALB/c mice; mouse, in vivo)	SUV (in vivo) [SUV]	SUVmax of the tumor, blocking group (U87MG xenografts [5]; 60 min p.i., 50-fold molar excess of non-radiolabeled precursor pre-injected 1 h in advance, n = 3)	SUVmax of the tumor (U87MG xenografts [5]; 30 min, n = 3)	SUVmax of the tumor (U87MG xenografts [5]; 90 min, n = 3)	route of elimination (PET/CT) (U87MG xenografts [5]; mouse, in vivo)	cellular uptake (U87MG cells [6]; 0.74 MBq, 37°C, 60 min, five replicate wells)	cellular uptake, blocked (U87MG cells [6]; 60 min, 100-fold excess of non-radiolabeled precursor)	cellular uptake of [68Ga]Ga-FAP-2286-ICG compared to [68Ga]Ga-FAP-2286 (U87MG cells [6]; 2 h incubation, p = 0.1945)	RCP after incubation in PBS (in vitro)	remaining at 2 h (in vitro; serum) [%]	partition coefficient log P [7]
808	779	CC1(C)C(/C=C/C=C/C=C/C=C2\N(CCCCS(=O)(=O)O)c3ccc4ccccc4c3C2(C)C)=[N+](CCCCS(=O)(=O)[O-])c2ccc3ccccc3c21 [ICG, indocyanine green]	no fluorescence signals in the tumor site	3.13×10^13 ± 2.21×10^12 p/sec/cm^2/sr/[μW/cm^2]	5														
		CCCCCC(=O)N[C@H]1CSCc2cc(CSCCNC(=O)[C@H](CCCCNC(=O)CCCCCN3/C(=C/C=C/C=C/C=C/C4=[N+](CCCCS(=O)(=O)[O-])c5ccc6ccccc6c5C4(C)C)C(C)(C)c4c3ccc3ccccc43)NC(=O)CN3CCN(CC(=O)O)CCN(CC(=O)O)CCN(CC(=O)O)CC3)cc(c2)CSC[C@@H](C(=O)O)NC(=O)[C@H](Cc2ccccc2)NC(=O)[C@H](CCC(N)=O)NC(=O)[C@H]([C@@H](C)O)NC(=O)[C@@H]2CCCN2C(=O)[C@@H]2CCCN2C1=O [[^68Ga]Ga-FAP-2286-ICG, metal not drawn]				no evident signs of acute toxicity	did not exhibit significant changes	No significant pathological abnormalities	0.18 ± 0.07	0.17 ± 0.01	0.57 ± 0.10	0.58 ± 0.23	mainly eliminated through liver metabolism and kidney excretion	12.00% ± 1.73 %ID	6.88% ± 0.37 %ID	no statistically significant difference	greater than 85%	> 85	−1.20 ± 0.18
